# Activity calls are given as the source filed them. The rule behind the calls is not given here.
# Assays:
# [1] = molecular target: DNA-dependent protein kinase catalytic subunit (Homo sapiens) (UniProt P78527); experiment: Inhibition of PRKDC ATP labeling site harbouring KGGSWIQEINVAEKNWYPR in human Huh-7 cells at 1 uM by KiNativ Profiling analysis relative to control; format: cell-based
# [2] = molecular target: Mitogen-activated protein kinase 1 (Homo sapiens) (UniProt P28482); experiment: Inhibition of ERK2 (unknown origin) at 10 uM by Ambit Kinomescan binding assay
# [3] = molecular target: T1, Aurora kinase A (Homo sapiens) (UniProt O14965); experiment: Inhibition of AurA K2 labeling site harbouring VIHRDIKPENLLLGSAGELK in human Huh-7 cells at 10 uM by KiNativ Profiling analysis relative to control; format: cell-based
# T1 sequence (whole entry): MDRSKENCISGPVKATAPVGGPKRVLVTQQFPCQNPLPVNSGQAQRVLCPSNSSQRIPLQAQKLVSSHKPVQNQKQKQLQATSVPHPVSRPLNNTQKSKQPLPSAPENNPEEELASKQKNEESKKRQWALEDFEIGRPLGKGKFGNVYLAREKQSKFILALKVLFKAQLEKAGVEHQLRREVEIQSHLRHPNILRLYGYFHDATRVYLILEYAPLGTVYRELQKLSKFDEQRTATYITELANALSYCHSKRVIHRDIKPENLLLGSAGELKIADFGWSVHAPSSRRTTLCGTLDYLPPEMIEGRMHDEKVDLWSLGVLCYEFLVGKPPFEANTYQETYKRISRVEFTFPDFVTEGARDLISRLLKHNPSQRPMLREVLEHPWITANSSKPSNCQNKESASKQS
# [4] = system: Phosphatidylinositol 4,5-bisphosphate 3-kinase catalytic subunit alpha isoform (Homo sapiens), P42336 [E545K]; experiment: Inhibition of PIK3CA E545K mutant (unknown origin) at 10 uM by Ambit Kinomescan binding assay
# [5] = molecular target: Serine/threonine-protein kinase 16 (Homo sapiens) (UniProt O75716); experiment: Inhibition of MPSK1 K2 labeling site in human Huh-7 cells at 1 uM by KiNativ Profiling analysis relative to control; format: cell-based
# Serine/threonine-protein kinase 16 (Homo sapiens), sequence (O75716 whole entry): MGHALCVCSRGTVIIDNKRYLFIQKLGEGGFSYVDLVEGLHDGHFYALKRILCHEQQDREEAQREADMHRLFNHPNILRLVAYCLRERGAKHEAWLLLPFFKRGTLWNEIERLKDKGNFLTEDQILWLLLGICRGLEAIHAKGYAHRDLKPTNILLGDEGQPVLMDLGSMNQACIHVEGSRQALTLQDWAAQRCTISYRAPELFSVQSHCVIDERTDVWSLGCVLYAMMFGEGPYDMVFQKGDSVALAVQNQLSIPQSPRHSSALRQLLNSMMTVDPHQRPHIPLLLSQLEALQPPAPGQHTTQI
# [6] = molecular target: Misshapen-like kinase 1 (Homo sapiens) (UniProt Q8N4C8); experiment: Inhibition of ZC3 Lys2 labeling site in human A-375 cells at 5 uM by KiNativ Profiling analysis relative to control; format: cell-based
# [7] = molecular target: Proto-oncogene tyrosine-protein kinase Src (Homo sapiens, UniProt P12931); experiment: Inhibition of SRC (unknown origin) at 1 uM by Ambit Kinomescan binding assay relative to control
# Proto-oncogene tyrosine-protein kinase Src, sequence (P12931 2-536 limits assumed): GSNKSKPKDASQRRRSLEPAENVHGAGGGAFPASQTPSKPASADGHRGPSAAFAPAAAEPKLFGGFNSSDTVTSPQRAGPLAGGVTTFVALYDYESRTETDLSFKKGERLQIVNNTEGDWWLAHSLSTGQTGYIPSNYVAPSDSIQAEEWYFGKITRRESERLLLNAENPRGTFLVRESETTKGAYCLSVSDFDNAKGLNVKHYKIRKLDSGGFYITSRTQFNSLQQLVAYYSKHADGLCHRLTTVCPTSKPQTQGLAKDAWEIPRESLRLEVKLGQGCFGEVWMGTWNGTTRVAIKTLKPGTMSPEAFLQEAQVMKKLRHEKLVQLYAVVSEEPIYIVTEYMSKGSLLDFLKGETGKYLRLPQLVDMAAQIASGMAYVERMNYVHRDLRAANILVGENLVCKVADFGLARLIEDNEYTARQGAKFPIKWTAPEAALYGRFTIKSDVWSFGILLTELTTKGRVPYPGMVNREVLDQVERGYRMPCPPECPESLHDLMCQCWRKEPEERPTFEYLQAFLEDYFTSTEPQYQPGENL
# [8] = molecular target: Mitogen-activated protein kinase kinase kinase kinase 5 (Homo sapiens) (UniProt Q9Y4K4); experiment: Inhibition of MAP4K5 (unknown origin) at 1 uM by Ambit Kinomescan binding assay relative to control; values are per cent of control
# [9] = molecular target: T2, Serine/threonine-protein kinase 3 (Homo sapiens) (UniProt Q13188); experiment: Inhibition of MST2 Lys2 labeling site harbouring IHRDIKAGNILLNTEGHAK in human Huh-7 cell lysate at 1 uM by KiNativ Profiling analysis relative to control; format: subcellular
# T2 sequence (whole entry): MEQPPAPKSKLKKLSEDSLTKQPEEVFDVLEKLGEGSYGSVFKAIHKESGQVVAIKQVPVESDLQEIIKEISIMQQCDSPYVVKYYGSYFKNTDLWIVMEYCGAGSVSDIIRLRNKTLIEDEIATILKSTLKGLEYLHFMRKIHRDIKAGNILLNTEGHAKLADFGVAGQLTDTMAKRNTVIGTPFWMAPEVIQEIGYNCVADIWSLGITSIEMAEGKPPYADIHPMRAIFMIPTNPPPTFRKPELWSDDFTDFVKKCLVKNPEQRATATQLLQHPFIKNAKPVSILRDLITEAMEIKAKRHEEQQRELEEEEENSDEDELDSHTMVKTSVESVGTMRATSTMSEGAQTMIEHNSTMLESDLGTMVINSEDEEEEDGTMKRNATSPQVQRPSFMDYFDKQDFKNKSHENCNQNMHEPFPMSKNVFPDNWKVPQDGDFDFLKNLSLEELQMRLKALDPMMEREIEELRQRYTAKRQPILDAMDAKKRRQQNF
# [10] = molecular target: T3, Inhibitor of nuclear factor kappa-B kinase subunit beta (Homo sapiens) (UniProt O14920); experiment: Inhibition of IKKb Lys2 labeling site in human Huh-7 cell lysate at 1 uM by KiNativ Profiling analysis relative to control; format: subcellular
# T3 sequence (whole entry): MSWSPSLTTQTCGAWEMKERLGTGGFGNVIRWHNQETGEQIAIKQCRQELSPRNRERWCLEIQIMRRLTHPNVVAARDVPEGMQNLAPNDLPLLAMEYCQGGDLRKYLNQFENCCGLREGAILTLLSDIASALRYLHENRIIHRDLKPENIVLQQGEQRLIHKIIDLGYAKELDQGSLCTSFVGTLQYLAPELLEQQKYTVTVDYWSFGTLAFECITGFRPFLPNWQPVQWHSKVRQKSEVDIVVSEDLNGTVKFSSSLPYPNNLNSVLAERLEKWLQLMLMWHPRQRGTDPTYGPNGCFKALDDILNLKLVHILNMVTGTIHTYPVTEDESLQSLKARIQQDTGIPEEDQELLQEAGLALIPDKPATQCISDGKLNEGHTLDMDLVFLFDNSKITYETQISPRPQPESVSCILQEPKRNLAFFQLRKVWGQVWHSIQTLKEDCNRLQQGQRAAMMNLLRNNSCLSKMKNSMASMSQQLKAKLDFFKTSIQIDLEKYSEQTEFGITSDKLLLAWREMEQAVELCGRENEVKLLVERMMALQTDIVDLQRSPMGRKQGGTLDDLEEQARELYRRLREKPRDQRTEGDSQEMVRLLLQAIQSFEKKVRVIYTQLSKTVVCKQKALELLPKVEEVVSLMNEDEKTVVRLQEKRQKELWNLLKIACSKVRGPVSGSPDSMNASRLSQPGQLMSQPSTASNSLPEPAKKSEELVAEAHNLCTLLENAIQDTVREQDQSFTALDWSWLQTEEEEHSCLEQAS
# [11] = molecular target: T4, Phosphatidylinositol 5-phosphate 4-kinase type-2 alpha (Homo sapiens) (UniProt P48426); experiment: Inhibition of PIP4K2A ATP labeling site harbouring AKELPTLKDNDFINEGQK in human Huh-7 cell lysate at 1 uM by KiNativ Profiling analysis relative to control; format: subcellular
# T4 sequence (whole entry): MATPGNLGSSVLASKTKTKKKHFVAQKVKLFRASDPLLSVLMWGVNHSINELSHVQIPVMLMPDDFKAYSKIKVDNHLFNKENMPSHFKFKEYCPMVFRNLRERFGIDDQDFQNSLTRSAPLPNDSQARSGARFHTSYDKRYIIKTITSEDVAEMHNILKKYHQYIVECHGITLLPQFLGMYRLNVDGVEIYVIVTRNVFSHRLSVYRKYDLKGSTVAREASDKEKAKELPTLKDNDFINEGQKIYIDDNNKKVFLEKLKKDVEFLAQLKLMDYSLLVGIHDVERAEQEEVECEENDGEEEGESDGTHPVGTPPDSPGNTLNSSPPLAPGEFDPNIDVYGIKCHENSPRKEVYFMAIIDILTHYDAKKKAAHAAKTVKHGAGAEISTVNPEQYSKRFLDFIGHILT
# DNA-dependent protein kinase catalytic subunit (Homo sapiens), sequence (P78527 whole entry): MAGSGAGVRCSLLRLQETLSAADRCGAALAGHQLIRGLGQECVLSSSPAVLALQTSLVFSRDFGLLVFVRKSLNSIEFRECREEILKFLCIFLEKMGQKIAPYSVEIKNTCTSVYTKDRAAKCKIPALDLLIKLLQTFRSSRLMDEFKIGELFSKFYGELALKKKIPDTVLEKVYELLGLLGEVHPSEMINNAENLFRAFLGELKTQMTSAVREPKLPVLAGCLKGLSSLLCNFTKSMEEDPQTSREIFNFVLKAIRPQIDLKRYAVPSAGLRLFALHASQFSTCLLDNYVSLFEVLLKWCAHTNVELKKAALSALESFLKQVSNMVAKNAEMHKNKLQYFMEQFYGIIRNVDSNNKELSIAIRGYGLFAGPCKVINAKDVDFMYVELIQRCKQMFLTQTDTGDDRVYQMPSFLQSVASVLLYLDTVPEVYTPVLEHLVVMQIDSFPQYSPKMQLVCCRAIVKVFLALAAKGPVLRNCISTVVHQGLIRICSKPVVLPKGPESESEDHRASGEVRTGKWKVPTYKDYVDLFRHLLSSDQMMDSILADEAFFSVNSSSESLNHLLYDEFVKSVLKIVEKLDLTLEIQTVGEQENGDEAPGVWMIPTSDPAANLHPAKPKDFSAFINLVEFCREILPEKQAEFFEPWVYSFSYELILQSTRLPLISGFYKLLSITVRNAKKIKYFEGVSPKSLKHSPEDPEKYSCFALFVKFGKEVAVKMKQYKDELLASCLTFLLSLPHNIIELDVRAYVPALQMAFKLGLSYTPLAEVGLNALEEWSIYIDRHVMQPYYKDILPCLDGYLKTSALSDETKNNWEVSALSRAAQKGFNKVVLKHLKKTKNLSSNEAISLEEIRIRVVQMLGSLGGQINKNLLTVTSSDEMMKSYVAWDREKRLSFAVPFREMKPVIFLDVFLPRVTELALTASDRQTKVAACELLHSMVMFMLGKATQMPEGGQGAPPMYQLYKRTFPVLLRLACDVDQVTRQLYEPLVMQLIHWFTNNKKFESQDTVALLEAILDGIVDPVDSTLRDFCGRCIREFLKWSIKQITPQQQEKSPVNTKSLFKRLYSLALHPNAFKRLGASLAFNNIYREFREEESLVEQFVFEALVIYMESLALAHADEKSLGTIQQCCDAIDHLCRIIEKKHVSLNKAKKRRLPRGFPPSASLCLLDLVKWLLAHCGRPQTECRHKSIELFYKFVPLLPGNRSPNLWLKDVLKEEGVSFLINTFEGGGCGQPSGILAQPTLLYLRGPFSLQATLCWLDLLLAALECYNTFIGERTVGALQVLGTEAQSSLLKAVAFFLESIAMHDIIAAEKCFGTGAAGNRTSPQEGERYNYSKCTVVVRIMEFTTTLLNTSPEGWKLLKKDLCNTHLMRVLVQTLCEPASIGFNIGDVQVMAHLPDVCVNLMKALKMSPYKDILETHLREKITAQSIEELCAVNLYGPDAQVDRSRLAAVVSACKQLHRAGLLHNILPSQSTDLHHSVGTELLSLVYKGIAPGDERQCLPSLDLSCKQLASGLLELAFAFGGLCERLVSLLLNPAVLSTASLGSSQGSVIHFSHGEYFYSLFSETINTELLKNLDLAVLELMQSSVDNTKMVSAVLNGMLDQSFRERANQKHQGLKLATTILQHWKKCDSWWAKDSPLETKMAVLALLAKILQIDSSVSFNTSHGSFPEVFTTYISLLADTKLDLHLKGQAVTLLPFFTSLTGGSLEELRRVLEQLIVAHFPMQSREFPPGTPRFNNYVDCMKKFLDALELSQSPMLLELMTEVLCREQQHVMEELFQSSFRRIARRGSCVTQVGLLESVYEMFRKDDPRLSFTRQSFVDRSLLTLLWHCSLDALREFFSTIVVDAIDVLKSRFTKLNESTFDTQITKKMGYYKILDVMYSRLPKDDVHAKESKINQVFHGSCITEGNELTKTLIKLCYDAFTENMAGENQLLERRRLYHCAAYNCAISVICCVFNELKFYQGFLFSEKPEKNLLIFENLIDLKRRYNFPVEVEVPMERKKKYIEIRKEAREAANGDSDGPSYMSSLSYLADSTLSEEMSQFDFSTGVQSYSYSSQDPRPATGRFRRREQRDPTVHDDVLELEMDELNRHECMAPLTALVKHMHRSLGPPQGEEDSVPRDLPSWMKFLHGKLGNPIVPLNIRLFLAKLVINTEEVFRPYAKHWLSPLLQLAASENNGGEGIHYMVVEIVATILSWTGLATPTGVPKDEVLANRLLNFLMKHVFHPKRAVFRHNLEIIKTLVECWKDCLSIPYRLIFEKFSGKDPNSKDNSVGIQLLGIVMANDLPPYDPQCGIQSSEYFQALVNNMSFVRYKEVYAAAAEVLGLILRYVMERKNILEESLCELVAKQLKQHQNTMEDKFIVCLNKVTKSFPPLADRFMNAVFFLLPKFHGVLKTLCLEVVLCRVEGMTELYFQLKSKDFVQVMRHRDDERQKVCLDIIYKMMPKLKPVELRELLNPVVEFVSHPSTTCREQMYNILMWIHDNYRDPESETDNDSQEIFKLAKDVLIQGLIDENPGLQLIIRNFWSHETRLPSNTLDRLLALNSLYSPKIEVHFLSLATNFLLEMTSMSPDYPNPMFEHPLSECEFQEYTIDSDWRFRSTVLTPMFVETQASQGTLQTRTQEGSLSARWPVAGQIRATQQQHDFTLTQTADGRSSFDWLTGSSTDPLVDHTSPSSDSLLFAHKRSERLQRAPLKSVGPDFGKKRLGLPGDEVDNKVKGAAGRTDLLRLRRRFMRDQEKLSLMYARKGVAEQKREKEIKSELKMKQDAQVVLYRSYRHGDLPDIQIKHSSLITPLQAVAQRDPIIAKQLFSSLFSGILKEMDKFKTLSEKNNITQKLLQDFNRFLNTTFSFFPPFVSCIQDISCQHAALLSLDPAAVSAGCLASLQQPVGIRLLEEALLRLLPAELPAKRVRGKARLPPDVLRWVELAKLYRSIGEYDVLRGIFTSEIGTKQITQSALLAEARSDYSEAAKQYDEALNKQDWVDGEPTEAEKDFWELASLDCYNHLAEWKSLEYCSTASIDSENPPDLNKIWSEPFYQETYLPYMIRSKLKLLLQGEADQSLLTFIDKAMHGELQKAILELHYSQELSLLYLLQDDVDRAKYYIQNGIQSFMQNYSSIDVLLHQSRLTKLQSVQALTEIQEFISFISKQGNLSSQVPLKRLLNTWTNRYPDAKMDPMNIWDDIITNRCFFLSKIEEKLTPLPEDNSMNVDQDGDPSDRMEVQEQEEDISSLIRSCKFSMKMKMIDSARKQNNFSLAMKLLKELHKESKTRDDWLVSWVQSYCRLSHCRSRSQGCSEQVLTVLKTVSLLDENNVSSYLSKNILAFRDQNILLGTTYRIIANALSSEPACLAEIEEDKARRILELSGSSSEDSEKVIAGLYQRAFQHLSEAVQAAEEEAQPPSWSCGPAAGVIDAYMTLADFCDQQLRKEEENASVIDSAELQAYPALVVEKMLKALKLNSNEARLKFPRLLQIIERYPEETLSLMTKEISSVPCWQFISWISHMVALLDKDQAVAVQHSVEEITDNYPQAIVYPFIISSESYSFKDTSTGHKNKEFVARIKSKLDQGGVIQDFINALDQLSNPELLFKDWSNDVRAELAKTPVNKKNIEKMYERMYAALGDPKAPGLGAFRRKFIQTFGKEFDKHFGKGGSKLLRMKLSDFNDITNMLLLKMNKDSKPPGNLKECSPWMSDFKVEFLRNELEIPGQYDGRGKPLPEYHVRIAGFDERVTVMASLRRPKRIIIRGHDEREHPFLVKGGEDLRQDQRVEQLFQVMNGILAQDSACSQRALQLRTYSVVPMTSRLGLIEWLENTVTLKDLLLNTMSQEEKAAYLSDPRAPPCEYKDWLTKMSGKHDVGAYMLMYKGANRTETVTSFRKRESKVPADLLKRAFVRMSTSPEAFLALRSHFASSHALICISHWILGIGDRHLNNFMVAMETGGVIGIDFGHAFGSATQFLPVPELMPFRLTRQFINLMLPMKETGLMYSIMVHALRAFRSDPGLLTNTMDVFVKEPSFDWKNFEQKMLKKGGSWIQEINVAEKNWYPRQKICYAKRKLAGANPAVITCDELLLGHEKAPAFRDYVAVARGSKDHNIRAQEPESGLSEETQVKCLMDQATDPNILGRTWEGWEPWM
compound,measurement,setting,value
CCN1CCN(Cc2ccc(NC(=O)c3ccc(C)c(Oc4ccnc5[nH]ccc45)c3)cc2C(F)(F)F)CC1,inhibition,[1],30.8%
same,inhibition,[2],inactive
same,inhibition,[3],inactive
same,inhibition,[4],inactive
same,inhibition,[5],6.7%
same,inhibition,[6],92.7%
CCN1CCN(Cc2ccc(NC(=O)c3ccc(C)c(/C=C/c4cnc5[nH]ccc5c4OC)c3)cc2C(F)(F)F)CC1,inhibition,[7],2.8%
same,residual activity,[8],7.2%
CNc1cc(Oc2cc(C(=O)Nc3cc(N4CCN(C)CC4)cc(C(F)(F)F)c3)ccc2C)ncn1,inhibition,[9],14.4%
same,inhibition,[10],-5.1%
same,inhibition,[11],0.1%
